# Laboratory results published in the kinase profiling compilation of Christmann-Franck et al. (2016).
# Legend:
# Experiment in all cases: radiometric filter-binding kinase assay
# [1] = biological target: PIM1 (human) (UniProt P11309)
# [2] = biological target: PAK7 (human) (UniProt Q9P286)
# [3] = biological target: EPHA4 (human) (UniProt P54764)
# [4] = biological target: MAP3K7 TAB1 (human) (UniProt Q15750+O43318)
# [5] = biological target: CSK (human) (UniProt P41240)
# [6] = biological target: CSNK1D (human) (UniProt P48730)
# [7] = biological target: BTK (human) (UniProt Q06187)
# [8] = biological target: DYRK2 (human) (UniProt Q92630)
# [9] = biological target: EPHB2 (human) (UniProt P29323)
# [10] = biological target: MKNK2 (human) (UniProt Q9HBH9)
# [11] = biological target: MAPKAPK5 (human) (UniProt Q8IW41)
# [12] = biological target: IKBKB (human) (UniProt O14920)
# [13] = biological target: MAP3K11 (human) (UniProt Q16584)
# [14] = biological target: RIPK2 (human) (UniProt O43353)
# [15] = biological target: MAPK9 (human) (UniProt P45984)
# [16] = biological target: BRSK1 (human) (UniProt Q8TDC3)
# [17] = biological target: PRKACA (human) (UniProt P17612)
# [18] = biological target: MAP2K2 (human) (UniProt P36507)
# Sequence of MAP2K2 (human) (P36507 whole entry, looked up): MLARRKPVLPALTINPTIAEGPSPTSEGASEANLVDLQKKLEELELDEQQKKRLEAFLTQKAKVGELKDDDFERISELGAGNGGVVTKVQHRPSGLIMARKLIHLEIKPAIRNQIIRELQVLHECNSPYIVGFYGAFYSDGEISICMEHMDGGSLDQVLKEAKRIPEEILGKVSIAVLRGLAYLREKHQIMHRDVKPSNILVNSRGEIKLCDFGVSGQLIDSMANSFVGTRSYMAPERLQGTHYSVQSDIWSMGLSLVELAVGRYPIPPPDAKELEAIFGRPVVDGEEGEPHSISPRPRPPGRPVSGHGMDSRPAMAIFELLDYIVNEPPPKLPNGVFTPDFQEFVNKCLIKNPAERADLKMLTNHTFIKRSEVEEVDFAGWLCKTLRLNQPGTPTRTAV
# Sequence of BTK (human) (Q06187 whole entry, looked up): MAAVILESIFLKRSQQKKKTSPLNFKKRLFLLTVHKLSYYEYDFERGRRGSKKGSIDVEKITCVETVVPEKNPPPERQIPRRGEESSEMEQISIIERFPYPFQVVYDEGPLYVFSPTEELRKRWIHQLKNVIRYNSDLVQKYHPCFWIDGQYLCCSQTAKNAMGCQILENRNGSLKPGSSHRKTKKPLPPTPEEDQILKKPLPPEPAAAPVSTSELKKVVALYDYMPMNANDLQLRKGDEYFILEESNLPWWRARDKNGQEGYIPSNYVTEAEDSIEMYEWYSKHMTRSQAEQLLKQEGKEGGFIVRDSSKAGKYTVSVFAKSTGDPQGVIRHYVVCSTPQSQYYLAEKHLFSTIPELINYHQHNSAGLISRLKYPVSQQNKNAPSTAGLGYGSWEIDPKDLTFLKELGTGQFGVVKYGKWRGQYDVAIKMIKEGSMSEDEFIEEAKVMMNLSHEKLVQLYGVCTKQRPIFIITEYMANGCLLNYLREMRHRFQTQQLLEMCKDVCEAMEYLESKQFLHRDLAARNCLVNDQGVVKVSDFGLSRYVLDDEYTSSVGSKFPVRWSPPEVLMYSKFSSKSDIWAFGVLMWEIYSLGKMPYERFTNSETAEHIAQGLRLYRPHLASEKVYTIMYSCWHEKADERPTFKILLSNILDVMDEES
# Sequence of CSNK1D (human) (P48730 whole entry, looked up): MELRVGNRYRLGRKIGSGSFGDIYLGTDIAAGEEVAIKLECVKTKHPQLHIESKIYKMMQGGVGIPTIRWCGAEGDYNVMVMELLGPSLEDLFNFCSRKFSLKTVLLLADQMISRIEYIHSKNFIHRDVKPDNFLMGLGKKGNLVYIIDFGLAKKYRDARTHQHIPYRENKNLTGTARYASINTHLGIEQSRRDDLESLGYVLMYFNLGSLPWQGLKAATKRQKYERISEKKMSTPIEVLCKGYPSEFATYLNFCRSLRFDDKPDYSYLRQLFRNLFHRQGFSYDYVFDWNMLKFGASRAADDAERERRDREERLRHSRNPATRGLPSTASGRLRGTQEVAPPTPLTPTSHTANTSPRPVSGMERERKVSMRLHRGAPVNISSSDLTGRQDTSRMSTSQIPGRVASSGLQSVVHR
# Sequence of MAP3K7 TAB1 (human) (O43318 whole entry, looked up): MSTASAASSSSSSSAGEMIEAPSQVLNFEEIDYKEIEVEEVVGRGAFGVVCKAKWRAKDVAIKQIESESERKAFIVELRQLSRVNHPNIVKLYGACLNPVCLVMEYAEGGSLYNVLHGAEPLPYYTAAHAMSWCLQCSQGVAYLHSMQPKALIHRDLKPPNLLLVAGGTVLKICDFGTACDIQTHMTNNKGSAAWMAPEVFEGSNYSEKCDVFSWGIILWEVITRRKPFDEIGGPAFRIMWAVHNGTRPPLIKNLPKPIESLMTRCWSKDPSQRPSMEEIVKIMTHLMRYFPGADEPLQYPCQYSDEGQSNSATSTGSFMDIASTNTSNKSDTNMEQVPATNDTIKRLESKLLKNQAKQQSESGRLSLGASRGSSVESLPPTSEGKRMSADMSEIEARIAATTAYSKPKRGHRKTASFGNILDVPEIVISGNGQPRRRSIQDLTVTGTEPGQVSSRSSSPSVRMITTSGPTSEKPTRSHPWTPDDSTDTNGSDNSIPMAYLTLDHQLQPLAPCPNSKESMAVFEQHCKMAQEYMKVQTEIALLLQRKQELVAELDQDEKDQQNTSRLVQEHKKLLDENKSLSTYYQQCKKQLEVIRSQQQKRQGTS
# Sequence of MAP3K7 TAB1 (human) (Q15750 whole entry, looked up): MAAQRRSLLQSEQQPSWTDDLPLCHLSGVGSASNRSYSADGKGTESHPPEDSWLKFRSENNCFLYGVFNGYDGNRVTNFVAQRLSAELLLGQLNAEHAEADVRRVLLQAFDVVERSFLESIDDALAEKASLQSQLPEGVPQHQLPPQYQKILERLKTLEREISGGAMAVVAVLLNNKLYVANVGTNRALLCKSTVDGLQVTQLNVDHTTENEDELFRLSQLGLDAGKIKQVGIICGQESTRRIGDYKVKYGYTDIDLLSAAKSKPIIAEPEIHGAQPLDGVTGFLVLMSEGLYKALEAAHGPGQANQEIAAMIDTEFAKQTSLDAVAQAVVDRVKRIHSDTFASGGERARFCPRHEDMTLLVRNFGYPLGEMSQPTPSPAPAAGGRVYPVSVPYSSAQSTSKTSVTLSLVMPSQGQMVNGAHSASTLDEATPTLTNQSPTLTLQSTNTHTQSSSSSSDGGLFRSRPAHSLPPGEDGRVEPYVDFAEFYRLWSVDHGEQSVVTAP
# Sequence of RIPK2 (human) (O43353 whole entry, looked up): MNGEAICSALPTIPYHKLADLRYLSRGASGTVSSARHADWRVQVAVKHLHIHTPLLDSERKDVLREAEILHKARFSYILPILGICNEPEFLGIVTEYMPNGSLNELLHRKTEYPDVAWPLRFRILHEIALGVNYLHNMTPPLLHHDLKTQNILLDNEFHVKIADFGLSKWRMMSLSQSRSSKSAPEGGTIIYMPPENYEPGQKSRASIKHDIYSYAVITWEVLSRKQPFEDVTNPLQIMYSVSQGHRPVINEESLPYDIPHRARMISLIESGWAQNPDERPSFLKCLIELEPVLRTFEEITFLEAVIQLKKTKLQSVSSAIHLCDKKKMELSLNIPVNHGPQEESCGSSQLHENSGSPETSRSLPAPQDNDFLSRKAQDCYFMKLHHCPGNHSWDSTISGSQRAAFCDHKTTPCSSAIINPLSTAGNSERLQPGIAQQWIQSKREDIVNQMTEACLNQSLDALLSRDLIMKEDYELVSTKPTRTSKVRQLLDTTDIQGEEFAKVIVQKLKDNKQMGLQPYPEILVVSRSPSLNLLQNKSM
# Sequence of BRSK1 (human) (Q8TDC3 whole entry, looked up): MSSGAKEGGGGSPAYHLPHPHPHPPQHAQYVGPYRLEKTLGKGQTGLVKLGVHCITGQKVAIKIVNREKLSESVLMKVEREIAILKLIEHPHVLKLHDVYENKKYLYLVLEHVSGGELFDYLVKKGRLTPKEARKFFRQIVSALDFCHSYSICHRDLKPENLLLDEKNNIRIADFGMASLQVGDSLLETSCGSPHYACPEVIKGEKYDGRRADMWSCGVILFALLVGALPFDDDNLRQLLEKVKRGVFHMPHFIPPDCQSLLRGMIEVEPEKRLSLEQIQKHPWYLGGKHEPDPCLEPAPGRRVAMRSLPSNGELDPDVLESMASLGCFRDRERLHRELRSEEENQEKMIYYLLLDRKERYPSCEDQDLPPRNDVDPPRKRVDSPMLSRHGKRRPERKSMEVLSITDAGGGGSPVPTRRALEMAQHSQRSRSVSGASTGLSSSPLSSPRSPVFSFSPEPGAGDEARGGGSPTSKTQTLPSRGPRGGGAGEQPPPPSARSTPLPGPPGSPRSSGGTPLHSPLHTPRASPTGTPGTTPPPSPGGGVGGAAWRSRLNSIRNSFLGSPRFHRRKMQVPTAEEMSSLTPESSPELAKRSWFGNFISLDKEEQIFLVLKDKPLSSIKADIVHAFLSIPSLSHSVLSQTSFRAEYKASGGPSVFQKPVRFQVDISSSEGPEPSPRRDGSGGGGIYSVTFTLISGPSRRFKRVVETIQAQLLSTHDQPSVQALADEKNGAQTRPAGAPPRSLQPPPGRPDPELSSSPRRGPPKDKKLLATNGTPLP
# Sequence of MAP3K11 (human) (Q16584 whole entry, looked up): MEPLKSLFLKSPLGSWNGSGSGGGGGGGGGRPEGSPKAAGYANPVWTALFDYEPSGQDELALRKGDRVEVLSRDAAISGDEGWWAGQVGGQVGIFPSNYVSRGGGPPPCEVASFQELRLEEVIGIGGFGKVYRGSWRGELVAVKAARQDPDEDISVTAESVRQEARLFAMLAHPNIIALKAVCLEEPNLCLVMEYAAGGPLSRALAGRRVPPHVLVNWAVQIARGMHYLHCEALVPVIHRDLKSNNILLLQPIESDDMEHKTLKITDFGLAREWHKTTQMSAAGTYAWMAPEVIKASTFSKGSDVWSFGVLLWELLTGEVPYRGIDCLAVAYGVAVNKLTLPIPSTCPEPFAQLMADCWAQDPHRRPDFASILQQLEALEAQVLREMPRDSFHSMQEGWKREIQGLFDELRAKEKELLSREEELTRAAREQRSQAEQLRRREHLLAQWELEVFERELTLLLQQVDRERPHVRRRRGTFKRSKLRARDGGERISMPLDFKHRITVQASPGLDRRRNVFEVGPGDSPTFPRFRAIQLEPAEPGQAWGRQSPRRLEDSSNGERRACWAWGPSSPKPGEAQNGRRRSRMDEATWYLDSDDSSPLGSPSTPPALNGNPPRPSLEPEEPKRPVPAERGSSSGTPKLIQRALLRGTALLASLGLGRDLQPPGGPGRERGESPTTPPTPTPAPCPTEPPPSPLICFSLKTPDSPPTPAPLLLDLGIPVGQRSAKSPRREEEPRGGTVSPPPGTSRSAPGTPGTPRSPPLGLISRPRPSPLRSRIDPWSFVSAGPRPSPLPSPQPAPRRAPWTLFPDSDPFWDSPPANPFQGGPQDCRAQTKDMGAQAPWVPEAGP
structure (smiles),measurement,setting,value
O=C(N[C@@H](COc1ccc2[nH]c(=O)[nH]c2c1)c1ccccc1)c1cccn(Cc2ccc(F)c(F)c2)c1=O,residual activity,[1]; compound 1.0 µM,105%
same,residual activity,[1]; compound 10.0 µM,76%
same,residual activity,[2]; compound 0.1 µM,104%
same,residual activity,[2]; compound 1.0 µM,92%
same,residual activity,[2]; compound 10.0 µM,64%
same,residual activity,[3]; compound 0.1 µM,95%
same,residual activity,[3]; compound 1.0 µM,113%
same,residual activity,[3]; compound 10.0 µM,107%
same,residual activity,[4]; compound 0.1 µM,97%
same,residual activity,[4]; compound 1.0 µM,103%
same,residual activity,[4]; compound 10.0 µM,54%
same,residual activity,[5]; compound 0.1 µM,109%
same,residual activity,[5]; compound 1.0 µM,98%
same,residual activity,[5]; compound 10.0 µM,101%
same,residual activity,[6]; compound 0.1 µM,103%
same,residual activity,[6]; compound 1.0 µM,110%
same,residual activity,[6]; compound 10.0 µM,113%
same,residual activity,[7]; compound 0.1 µM,109%
same,residual activity,[7]; compound 1.0 µM,108%
same,residual activity,[7]; compound 10.0 µM,110%
same,residual activity,[8]; compound 0.1 µM,110%
same,residual activity,[8]; compound 1.0 µM,101%
same,residual activity,[8]; compound 10.0 µM,83%
same,residual activity,[9]; compound 0.1 µM,118%
same,residual activity,[9]; compound 10.0 µM,121%
same,residual activity,[10]; compound 0.1 µM,117%
same,residual activity,[10]; compound 10.0 µM,112%
same,residual activity,[11]; compound 0.1 µM,108%
same,residual activity,[11]; compound 1.0 µM,100%
same,residual activity,[11]; compound 10.0 µM,95%
same,residual activity,[12]; compound 0.1 µM,102%
same,residual activity,[12]; compound 1.0 µM,99%
same,residual activity,[12]; compound 10.0 µM,99%
same,residual activity,[13]; compound 0.1 µM,104%
same,residual activity,[13]; compound 1.0 µM,97%
same,residual activity,[13]; compound 10.0 µM,46%
same,residual activity,[14]; compound 0.1 µM,102%
same,residual activity,[14]; compound 1.0 µM,105%
same,residual activity,[14]; compound 10.0 µM,98%
same,residual activity,[15]; compound 0.1 µM,93%
same,residual activity,[15]; compound 1.0 µM,97%
same,residual activity,[15]; compound 10.0 µM,95%
same,residual activity,[16]; compound 0.1 µM,118%
same,residual activity,[16]; compound 1.0 µM,102%
same,residual activity,[16]; compound 10.0 µM,92%
same,residual activity,[17]; compound 0.1 µM,105%
same,residual activity,[17]; compound 1.0 µM,112%
same,residual activity,[17]; compound 10.0 µM,111%
same,residual activity,[18]; compound 0.1 µM,121%
same,residual activity,[18]; compound 1.0 µM,124%
same,residual activity,[18]; compound 10.0 µM,135%
